Data taken from patent US8445517B2, “Stat modulators” (Dana-Farber Cancer Institute, priority 2009, dated 2013).
Entries after “also recorded” stand apart in the source; their conditions may differ. Counter-ions that a name gives are not always drawn.

Experiments:
[1] = tested on: MCF-7 breast cancer cells; experiment: Growth inhibition by IFN-γ in breast cancer cells; format: cell-based, human; details: Stat1-dependent; MCF-7 cells (FIG. 8)
Stat1 [2] = experiment: Mechanistic studies of Stat1 tyrosine phosphorylation; format: cell-based
Stat1 [3] = experiment: Stat1 luciferase reporter cell screen (NIH3T3 cells, IFN-γ stimulated); format: cell-based; details: screen for enhancers of Stat1 function
Procedure: A cell-based assay system for each Stat1, Stat3 and Stat5 was developed to identify compounds that modulate the respective Stat activity. Although the details for each system are slightly different, as described below, the basic principle are the same. […]
Cells were selected in geneticin (G418) to isolate clones that had stably integrated the plasmid. Individual clones were isolated and luciferase expression was measured by luminometry in the presence and absence of a stimulator of the specific Stat of interest. […]
All three cell-based screening systems were adapted for use in 384-well plates, which were then used to screen a library of 1120 compounds (the Prestwick Myeloma Collection available from Prestwick Chemical, Illkirch, France). […] After 6 hours, 40 μl of 0.5× Bright-Glo luciferase substrate (diluted in PBS) is added, and luciferase activity is quantitated on a Luminoskan luminometer (Helsinki, Finland). […]

endogenous Stat1 genes = experiment: Expression of endogenous Stat1 target genes (quantitative real-time PCR); format: cell-based
Procedure: This is followed by another confirmation assay utilizing quantitative real-time PCR measuring expression of endogenous target genes of each Stat. In this assay the cells are incubated as described above. However, after the incubation the cells are lysed and assessed for increased or decreased expression of target genes specific for the respective Stat molecule, e.g., Stat1, interferon-responsive factor (IRF)-1, GADD45[…], and IFI-16; for Stat3, SOCS3, BCL-6, and KLF-4; and, for Stat5, CIS, PIM-1, and MMP3.

Stat3 = Stat3 luciferase reporter cell assay (U3A cells, IL-6 stimulated); format: cell-based; details: for inhibition of Stat3 activity in validation studies: compounds tested individually, dose responses analyzed, selective versus NF-κB; for enhancement of Stat3 function: Stat3-dependent luciferase screen; for Stat3-dependent luciferase activity, primary screen: library screen in 384-well plates, IL-6 stimulated; for induction of luciferase in the Stat3 reporter system: cytokine treatment, test of reporter specificity
Excerpt: A cell-based assay system for each Stat1, Stat3 and Stat5 was developed to identify compounds that modulate the respective Stat activity. Although the details for each system are slightly different, as described below, the basic principle are the same. Appropriate cell lines (NIH3T3 for Stat1, U3A for Stat3, and T47D for Stat5) were transfected with a plasmid containing a luciferase reporter gene under the control of a promoter responsive to the indicated Stat, e.g., Stat1, Stat3 or Stat5, as well as a neomycin phosphotransferase cassette (BRIGHT GLO Luciferase Assay Kit available from Promega (Madison, Wis.). The reporter plasmid used in the Stat1 and Stat3 cell lines is described in Lynch et al., Cancer Research, 67:1254-61 (2007), which is herein incorporated by reference in its entirety. The nuclic acid binding sequence of Stat5 use in the reporter plasmid is denoted as region B in Walker et al., Oncogene, 26:224-233 (2007), which is herein incorporated by reference in its entirety.
Cells were selected in geneticin (G418) to isolate clones that had stably integrated the plasmid. Individual clones were isolated and luciferase expression was measured by luminometry in the presence and absence of a stimulator of the specific Stat of interest. Clones having a low basal luciferase expression, prominent induction by a specific stimulus (IFN-γ for Stat1, (IL)-6 for Stat3 and prolactin for Stat5), no induction with an irrelevant stimulus, and stable properties after prolonged cell culture or cryopreservation and thawing were selected. […] Several of these cell lines for each Stat construct were deposited with American Type Culture Collection of Manassas, Va. For example, cell lines having the Stat1 inducible promoter were deposited under ATCC Nos. Cell lines having the Stat3 inducible promoter were deposited under ATCC Nos. Cell lines having the Stat5 inducible promoter were deposited under ATCC numbers Nos.
To ensure the specificity of the reporter systems, the Stat3 reporter cell line and the NF-κB reporter system were compared. Each cell type was either untreated, treated with IL-6 (which activates Stat3 in both systems) or treated with TNF-α (which activates NF-κB in both).
All three cell-based screening systems were adapted for use in 384-well plates, which were then used to screen a library of 1120 compounds (the Prestwick Myeloma Collection available from Prestwick Chemical, Illkirch, France). […] Briefly, 2,500 cells are plated per well in 30 μl of medium in a 384 well plate and grown in Dulbecco's modified Eagle's medium (DMEM) supplemented with 10% fetal calf serum in an incubator with a 95% air/5% CO2 atmosphere at 37° C. After a 16 hour incubation to allow cells to adhere, 100 nl of the test compound is added per well and incubated for one hour, after which the activating cytokine (IFN-γ, IL-6, and prolactin, respectively) are added to each well in 10 μl of medium. After 6 hours, 40 μl of 0.5× Bright-Glo luciferase substrate (diluted in PBS) is added, and luciferase activity is quantitated on a Luminoskan luminometer (Helsinki, Finland).

NF-κB = NF-κB luciferase reporter cell assay (293T cells, TNF-α stimulated); format: cell-based; details: for NF-κB activity, primary screen: NF-κB luciferase reporter, control for non-specific effects; for induction of luciferase in the NF-κB reporter cells: cytokine treatment, test of reporter specificity
Procedure: A parallel system was also developed in which luciferase was under the control of the transcription factor NF-κB (cell lines deposited on under ATCC Nos.). When these 293T cells are treated with tumor necrosis factor (TNF)-α, they show prominent induction of luciferase. This provided an independent control to exclude non-specific effects.
To ensure the specificity of the reporter systems, the Stat3 reporter cell line and the NF-κB reporter system were compared. Each cell type was either untreated, treated with IL-6 (which activates Stat3 in both systems) or treated with TNF-α (which activates NF-κB in both). IL-6 led to approximately a five-fold induction of luciferase in the Stat3 reporter system, but induced no change in the NF-κB reporter cells. Conversely, TNF-α induced a 12-fold induction of luciferase in the NF-κB reporter cells, but led to no change in the Stat3-reporter system. The Stat1 and Stat5 reporter systems show similar characteristics. All three cell-based screens are able to reproducibly identify active and specific compounds.
The compounds that show selective activity in the primary screen (e.g., 25% or more difference in luciferase activity in the presence versus the absence of the compound and less than 12% difference in luciferase activity in the Nf-κB assay in the presence versus the absence of the compound) were then validated in a dose-response assay using the appropriate reporter cell lines.

Oc1ccccc1-c1ccc2cccnc2n1 [2-(1,8-Naphthyridin-2-yl)phenol]
growth inhibitory effects of IFN-γ on human breast cancer cell lines [1]: accentuated; also recorded: enhances
magnitude and duration of Stat1 tyrosine phosphorylation (Stat1 [2]): increasing
Stat1 modulator class as named in figure legend (Stat1 [3]): Stat1 activator
expression of endogenous Stat1 genes (endogenous Stat1 genes): enhanced

O=S1(=O)CCC(OC2CCS(=O)(=O)C2)C1 (stereo not drawn) [3,3′-oxybis[tetrahydrothiophene, 1,1,1′,1′-tetraoxide]
Stat3 modulator class as named in figure legend (Stat3): Stat3 inhibitor

CCCN(CCC)C(=O)CC(c1ccccc1)c1ccccc1O (stereo not drawn) [3-(2-hydroxyphenyl)-3-phenyl-N,N-dipropylpropanamide]
inhibition of Stat3 activity in validation studies (Stat3): significantly and specifically inhibit Stat3 activity

Nc1ncnc2c1ncn2[C@@H]1O[C@H](COP(=O)(O)O)[C@@H](O)[C@H]1O.O [adenosine 5′-monophosphate monohydrate]
enhancement of Stat3 function (Stat3): specifically enhance Stat3 function

C=CCc1ccccc1OCC(O)CNC(C)C (stereo not drawn) [alprenolol hydrochloride]
inhibition of Stat3 activity in validation studies (Stat3): significantly and specifically inhibit Stat3 activity

C[C@@H]1C[C@@H]([C@H](O)CC2CC(=O)NC(=O)C2)C(=O)[C@@H](C)C1 [cycloheximide]
NF-κB activity, primary screen (NF-κB): inhibited both
Stat3-dependent luciferase activity, primary screen (Stat3): inhibited both

COc1cccc2c1C(=O)c1c(O)c3c(c(O)c1C2=O)C[C@@](O)(C(C)=O)C[C@@H]3O[C@H]1C[C@H](N)[C@H](O)[C@H](C)O1 [daunorubicin]
NF-κB activity, primary screen (NF-κB): inhibited both
Stat3-dependent luciferase activity, primary screen (Stat3): inhibited both

COc1cccc2c1C(=O)c1c(O)c3c(c(O)c1C2=O)C[C@@](O)(C(=O)CO)C[C@@H]3O[C@H]1C[C@H](N)[C@H](O)[C@H](C)O1 [doxorubicin]
NF-κB activity, primary screen (NF-κB): inhibited both
Stat3-dependent luciferase activity, primary screen (Stat3): inhibited both

CNCCC(Oc1ccc(C(F)(F)F)cc1)c1ccccc1 (stereo not drawn) [fluoxetine hydrochloride]
inhibition of Stat3 activity in validation studies (Stat3): significantly and specifically inhibit Stat3 activity

N=C(N)N/N=C/c1c(Cl)cccc1Cl [guanabenz acetate]
inhibition of Stat3 activity in validation studies (Stat3): significantly and specifically inhibit Stat3 activity

O=P1(NCCCl)OCCCN1CCCl (stereo not drawn) [ifosfamide]
inhibition of Stat3 activity in validation studies (Stat3): significantly and specifically inhibit Stat3 activity

COC(=O)Nc1nc2ccc(C(=O)c3ccccc3)cc2[nH]1 [mebendazole]
enhancement of Stat3 function (Stat3): specifically enhance Stat3 function

O=C1c2c(O)ccc(O)c2C(=O)c2c(NCCNCCO)ccc(NCCNCCO)c21 [mitoxantrone]
NF-κB activity, primary screen (NF-κB): inhibited both
Stat3-dependent luciferase activity, primary screen (Stat3): inhibited both

CCOC(=O)Nc1ccc2c(c1)N(C(=O)CCN1CCOCC1)c1ccccc1S2 [moricizine hydrochloride]
inhibition of Stat3 activity in validation studies (Stat3): significantly and specifically inhibit Stat3 activity

O=C(N/N=C/c1ccc([N+](=O)[O-])o1)c1ccc(O)cc1 [nifuroxazide]
inhibition of Stat3 activity in validation studies (Stat3): significantly and specifically inhibit Stat3 activity

COC(=O)Nc1nc2ccc(C(=O)c3cccs3)cc2[nH]1 [nocodazole]
enhancement of Stat3 function (Stat3): specifically enhance Stat3 function

CNCCC=C1c2ccccc2CCc2ccccc21 [nortriptyline hydrochloride]
enhancement of Stat3 function (Stat3): specifically enhance Stat3 function

COc1cc([C@@H]2c3cc4c(cc3[C@H](O)[C@H]3COC(=O)[C@H]23)OCO4)cc(OC)c1OC [podophyllotoxin]
enhancement of Stat3 function (Stat3): specifically enhance Stat3 function

CN(C)CCCN1c2ccccc2Sc2ccccc21 [promazine hydrochloride]
enhancement of Stat3 function (Stat3): specifically enhance Stat3 function

CC[N+](C)(CC)CCC[n+]1c(-c2ccccc2)c2cc(N)ccc2c2ccc(N)cc21.[I-].[I-] [propidium iodide]
NF-κB activity, primary screen (NF-κB): inhibited both
Stat3-dependent luciferase activity, primary screen (Stat3): inhibited both

NC(=O)c1ncn([C@@H]2O[C@H](CO)[C@@H](O)[C@H]2O)n1 [ribavirin]
enhancement of Stat3 function (Stat3): specifically enhance Stat3 function

CN(C)C/C=C(/c1ccc(Br)cc1)c1cccnc1 [zimelidine dihydrochloride monohydrate]
enhancement of Stat3 function (Stat3): specifically enhance Stat3 function

IL-6: cytokine which activates Stat3; specific stimulus of the Stat3 reporter
induction of luciferase in the NF-κB reporter cells (NF-κB): no change
induction of luciferase in the Stat3 reporter system (Stat3): five-fold

TNF-α
induction of luciferase in the NF-κB reporter cells (NF-κB): 12 fold
induction of luciferase in the Stat3 reporter system (Stat3): no change

deptropine citrate
enhancement of Stat3 function (Stat3): specifically enhance Stat3 function

solanine alpha
inhibition of Stat3 activity in validation studies (Stat3): significantly and specifically inhibit Stat3 activity
